Article PMC4129108, “The natural triterpene 3β,6β,16β-trihydroxy-lup-20(29)-ene obtained from the flowers of Combretum leprosum induces apoptosis in MCF-7 breast cancer cells” (BMC Complementary and Alternative Medicine, 2014)
Entries after “also recorded” stand apart in the source; their conditions may differ.

Columns and labels:
[1] = test system: intracellular ROS in MCF-7 cells; assay: ROS detection by flow cytometry (H2DCFDA); assay type: cell-based, human
Protocol: Cells (2 × 10^5 cells/mL) were seeded on 6-well tissue culture plates, and grown for 1 day up to 70–80% confluence before treatment with the test substance. The TTHL was added to medium with FBS to obtain the different concentrations, and cells were treated at 37°C for 24 h in humidified atmosphere containing 5% CO2.
Levels of intracellular ROS were estimated following treatment with TTHL using 2′,7′-dichlorofluorescein diacetate (H2DCFDA, Sigma) as a fluorescent probe. Detection of oxidative stress was done by incubating the cells with 20 μM of H2DCFDA for 20 min at 37°C. Cells were then detached by trypsinization and washed twice with PBS. After filtration through cell strainer cap, cells were analyzed using a FACS Calibur flow cytometer with CellQuest software in accordance with Bass et al.. A total of 10,000 events were measured per sample. DCF fluorescence intensity was shown in arbitrary units.

[2] = test system: S. cerevisiae haploid strain XV185-14c; assay: Point and frameshift mutations and survival in XV185-14c haploid yeast; assay type: cell-based, Saccharomyces cerevisiae; settings: for HIS1/10^7 survivors (locus-specific revertants) / HOM3/10^8 survivors (locus-specific revertants, frameshift) / LYS1/10^8 survivors (locus non-specific revertants) / Survival (%): XV185-14c, STAT cells treated in PBS; for Survival (%): 1 h 30°C
Protocol: (§1) Media, solutions and buffers were prepared according to Burke et al.. YPD medium (0.5% yeast extract, 2% peptone, 2% glucose) was used for routine growth. Synthetic medium SC (0.67% yeast nitrogen base, 0.1% ammonium sulfate, 2% glucose) supplemented with the appropriate amino acids and bases ([…]) was used for the detection of mutations.
(§2) Stationary phase (STAT) cultures were obtained by inoculation of a single colony into liquid YPD. We chose to work in the stationary phase of growth because this resembles most cells of multicellular organisms in important aspects: (i) most energy comes from mitochondrial respiration; (ii) the cells have left the active cell cycle and have entered the Go phase; and (iii) damage accumulates over time.
Cell cultures were grown as described above, exposed to TTHL in concentrations ranging from 10 to 500 μg/mL, and then incubated in PBS for 1 h at 30°C. Two alleles, his1-798 and lys1-1, were used to detect point mutagenesis. The suppressible ochre nonsense mutant allele lys1-1 can be reverted either by locus-specific sequence alteration (true reversion) or by a forward mutation in a suppressor gene. […] Survival was determined on SC medium (3–5 days, 30°C) and mutation induction (HIS, LYS or HOM revertants) on media lacking the appropriate amino acid (7–10 days, 30°C). Induction of reversion of point mutation to his1-798, ochre allele lys1-1, and frameshift mutation values were scored per number of surviving cells.

[3] = test system: S. cerevisiae EG118 (sod1Δ); assay: Yeast survival assay, EG118 (sod1Δ); assay type: cell-based, Saccharomyces cerevisiae; settings: for survival (percentage in relation to negative control): STAT cells, 1 h in PBS 30°C
Protocol: as §1, §2
(§3) STAT cells (1 × 10^8 cells/mL) were exposed to TTHL (10–500 μg/mL) and incubated under growth conditions for 1 h in PBS at 30°C. Cells were then washed and treated with H2O2 (5 mM) in PBS for another hour. Suitable aliquots were plated in triplicate on solid YPD (2–3 days, 30°C) and colony-forming units were counted. Sensitivity was expressed as a percentage of survival in relation to the negative control (solvent).

[4] = test system: S. cerevisiae EG103 (SOD-WT); assay: Yeast survival assay, EG103 (SOD-WT); assay type: cell-based, Saccharomyces cerevisiae; settings: STAT cells, 1 h in PBS 30°C
Protocol: as §1, §2, §3

C=C(C)[C@@H]1CC[C@@]2(C)[C@H]1[C@H]1CC[C@@H]3[C@@]4(C)CC[C@H](O)C(C)(C)[C@@H]4[C@H](O)C[C@@]3(C)[C@]1(C)C[C@@H]2O [TTHL, 3β,6β,16β-trihydroxy-lup-20(29)-ene]
increase in intracellular ROS production ([1]; MCF-7, 24 h treatment at IC50): 49% | increase in intracellular ROS production ([1]; MCF-7, 24 h treatment at IC80): 64% | mutagenicity in yeast strain XV185-14c (in words) ([2]; 10 to 500 μg/mL, his1-798, lys1-1, hom3-10 loci): induced mutagenicity; also recorded: only able to induce mutagenesis on the assessed loci at the highest concentration | HIS1/10^7 survivors (locus-specific revertants) ([2]; 10 μg/mL): 10.77 ± 4.40 /10^7 survivors | HOM3/10^8 survivors (locus-specific revertants, frameshift) ([2]; 10 μg/mL): 6.11 ± 1.58 /10^8 survivors | LYS1/10^8 survivors (locus non-specific revertants) ([2]; 10 μg/mL): 4.78 ± 0.63 /10^8 survivors | Survival (%) ([2]; 10 μg/mL): 84.90% | HIS1/10^7 survivors (locus-specific revertants) ([2]; 50 μg/mL): 13.33 ± 1.10 /10^7 survivors | HOM3/10^8 survivors (locus-specific revertants, frameshift) ([2]; 50 μg/mL): 8.80 ± 0.14 /10^8 survivors | LYS1/10^8 survivors (locus non-specific revertants) ([2]; 50 μg/mL): 5.68 ± 2.22 /10^8 survivors | Survival (%) ([2]; 50 μg/mL): 72.83% | HIS1/10^7 survivors (locus-specific revertants) ([2]; 100 μg/mL): 20.83 ± 1.80 /10^7 survivors | HOM3/10^8 survivors (locus-specific revertants, frameshift) ([2]; 100 μg/mL): 8.49 ± 2.12 /10^8 survivors | LYS1/10^8 survivors (locus non-specific revertants) ([2]; 100 μg/mL): 9.72 ± 0.55 /10^8 survivors | Survival (%) ([2]; 100 μg/mL): 65.00% | HIS1/10^7 survivors (locus-specific revertants) ([2]; 500 μg/mL): 30.10 ± 0.21 /10^7 survivors | HOM3/10^8 survivors (locus-specific revertants, frameshift) ([2]; 500 μg/mL): 11.15 ± 0.92 /10^8 survivors | LYS1/10^8 survivors (locus non-specific revertants) ([2]; 500 μg/mL): 14.40 ± 3.40 /10^8 survivors | Survival (%) ([2]; 500 μg/mL): 69.00% | survival (percentage in relation to negative control) ([3]; TTHL 10 μg/mL): 92.60 ± 2.83% | survival (percentage in relation to negative control) ([3]; TTHL 50 μg/mL): 89.30 ± 0.85 % | survival (percentage in relation to negative control) ([3]; TTHL 100 μg/mL): 75.65 ± 4.60 % | survival (percentage in relation to negative control) ([3]; TTHL 500 μg/mL): 69.30 ± 3.68 % | sensitivity of the strain to TTHL (in words) ([3]; deficient in superoxide dismutase): hypersensitive | survival (percentage in relation to negative control) ([4]; TTHL 10 μg/mL): 100 ± 2.83% | survival (percentage in relation to negative control) ([4]; TTHL 50 μg/mL): 87.65 ± 5.16 % | survival (percentage in relation to negative control) ([4]; TTHL 100 μg/mL): 79.45 ± 1.91 % | survival (percentage in relation to negative control) ([4]; TTHL 500 μg/mL): 67.65 ± 3.04 %
